Assay [1] has as its system Scopolamine-impaired Radial Arm Maze. Kind of assay: Scopolamine-impaired Radial Arm Maze. It counts as in vivo, rat (male Sprague-Dawley). An excerpt: Male Sprague-Dawley (Charles River) rats on a 23-hour food deprivation schedule were trained in an eight arm radial maze with all arms baited. Each session consisted of two maze exposures, with a time limit of 300 seconds for each exposure. After four correct choices (first exposure), each animal was removed from the maze for one hour, then returned with only the remaining four arms baited (second exposure). Choice errors, consisting of delay errors (re-entry into any of the four arms chosen during the first exposure) and current errors (re-entry into any of the four arms chosen during the second exposure), as well as total errors were recorded. Durations for each exposure were also recorded. Statistical analysis was performed using a one-way ANOVA with Dunnett's t-test comparisons. Scopolamine (0.3 mg/kg, S.C.) and the compound of Example 1 (3,10 mg/kg, I.P,.) were administrered simultaneously 30 minutes prior to the test. All compounds were solubilized in phosphate buffered saline.

Another assay addresses T1, M1 muscarinic receptor (Rattus norvegicus, UniProt P08482).
T1 sequence (P08482 1-460): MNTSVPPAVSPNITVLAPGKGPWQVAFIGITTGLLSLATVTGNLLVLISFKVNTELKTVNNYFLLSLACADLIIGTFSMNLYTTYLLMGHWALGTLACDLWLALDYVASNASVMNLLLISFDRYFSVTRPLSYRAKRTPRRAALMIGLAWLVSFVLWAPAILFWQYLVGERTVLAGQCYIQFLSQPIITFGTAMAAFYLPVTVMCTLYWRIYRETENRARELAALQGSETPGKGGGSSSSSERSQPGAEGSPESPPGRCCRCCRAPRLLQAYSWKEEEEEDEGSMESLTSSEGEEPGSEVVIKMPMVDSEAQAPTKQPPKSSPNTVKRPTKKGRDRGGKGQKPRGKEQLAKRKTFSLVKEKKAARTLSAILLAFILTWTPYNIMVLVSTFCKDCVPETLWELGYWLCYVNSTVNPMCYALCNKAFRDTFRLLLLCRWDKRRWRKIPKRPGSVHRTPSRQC
As to the kind of experiment: M1 receptor binding ([^3 H]-pirenzepine). On the set-up: species or system rat (male Sprague-Dawley). As to conditions: Table 1; rat brain tissue, [^3 H]PZ 0.5 nM; read-out: ^3 H-Pirenzepine M1 IC50. The protocol: Compounds are tested for their ability to affect M1 muscarinic binding through use of [^3 H]-pirenzepine ([^3 H]PZ) as a prototypic M1 receptor ligand. Male Sprague-Dawley (Charles River) rats are used. Dose selection is typically in the concentration range of 10^-9 to 10^-4 M. Test and reference compounds are dissolved and diluted in water or ethanol and are then added to the assay buffer. The appropriate vehicle is added to the assay buffer for control testing.
The rats (approximately 300 gm body weight) have free access to food and water and are housed in groups of four to six. On the test day, the rats are euthanized by decapitation and brain tissue is dissected and homogenized using a hand-held teflon-coated pestle, in 20 volumes of 0.32M sucrose (20 strokes at 4° C.). After centrifugation (747×g for 10 minutes at 4° C.), the resultant supernatant is decanted and recentrifuged (18677×g for 20 minutes at 4° C.). The resultant pellet is resuspended in the original volume of 0.32M sucrose and frozen. After thawing, the suspension is diluted (1:1 v/v) with 10 mM Na2 HPO4 /KH2 PO4 buffer (pH=7.4). [^3 H]PZ (0.5 nM, 0.04 μCi) is then incubated with a 100 μl sample of the tissue suspension in the above buffer (1 ml final volume, including a 10 μl sample of test compound or vehicle). […] After 60 minutes of incubation at 25° C. (in the dark), the binding is terminated by vacuum filtration onto Whatman GF/B filters (pre-soaked for 60 minutes in 0.1% (w/v) polyethylenimine to reduce non-specific binding). After three washes with the previously mentioned buffer (4° C., 3 ml/wash), the vacuum is allowed to run for two minutes before the filter-trapped radioactivity is assayed by liquid scintillation spectroscopy.
Data are presented as the percent inhibition ([control-test]/control×100%) or enhancement ([test-control]/control×100%) of [^3 H]PZ binding by the test or reference compound. The IC50 value (the drug concentration which causes a 50% inhibition of specific [^3 H]PZ binding) is calculated through the use of the EDOSE program (with probit transformation written by a person for use in STAT80). Increases in [^3 H]PZ are reported as percent increase (versus control) for a given test drug concentration.

Assay [2] relates to M2 receptors. As to the kind of experiment: biochemical. It counts as binding. The following applies: Table 1; ratio of M2 IC50 to M1 IC50.
The target in assay [3] is T2, M2 receptors (Rattus norvegicus, UniProt P10980).
T2 sequence (P10980 1-466): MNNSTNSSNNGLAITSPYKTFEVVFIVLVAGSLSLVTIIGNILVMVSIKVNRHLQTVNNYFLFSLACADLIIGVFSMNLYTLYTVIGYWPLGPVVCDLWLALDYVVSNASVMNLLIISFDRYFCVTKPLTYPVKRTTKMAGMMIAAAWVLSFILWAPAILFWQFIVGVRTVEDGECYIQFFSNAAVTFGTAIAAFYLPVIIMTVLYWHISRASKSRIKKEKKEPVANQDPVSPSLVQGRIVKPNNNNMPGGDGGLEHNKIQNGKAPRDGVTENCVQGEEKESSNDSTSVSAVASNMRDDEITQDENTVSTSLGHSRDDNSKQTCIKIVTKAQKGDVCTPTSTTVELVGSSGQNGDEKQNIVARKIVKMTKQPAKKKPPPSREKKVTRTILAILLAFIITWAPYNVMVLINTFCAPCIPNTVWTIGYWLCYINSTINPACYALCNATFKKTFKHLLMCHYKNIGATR
As to the kind of experiment: biochemical. It counts as binding. The following applies: read-out: ^3 H-QNB M2 IC50.

In assay [4] the test system is scopolamine-induced hyperactivity, a proposed muscarinic M1 -mediated effect. As to the kind of experiment: Scopolamine-induced hyperactivity (locomotor activity). Further details: Total activity: unit not given here. The assay is classed as in vivo, rat. The protocol:
Compounds were evaluated for the ability to attenuate scopolamine-induced hyperactivity, a proposed muscarinic M1 -mediated effect. Animals were permitted to habituate for 30 minutes in locomotor activity chambers (Digiscan, Omnitech; Columbus, Ohio) in which infrared detectors were used to measure movement in 3 axes. The animals were then injected i.p. with vehicle alone, scopolamine alone (1.7 mg/kg) or both scopolamine and one dose of the test compound. Animals were then replaced in the chambers and locomotor activity was measured for an additional 1 hour period. Total activity measures (vertical+horizintal movements) were collected and statistically analyzed in four 15 minute periods.

For assay [5], the system named is scopolamine-induced memory loss. As to conditions: cited from earlier work.
The test system of another assay is memory loss. The following applies: cat, rat, and monkey; muscarinic antagonist; cited from earlier work.
For assay [6], the system named is scopolamine-induced memory loss. The following applies: rats; cited from earlier work.
The test system of assay [7] is Alzheimer's patients and healthy elderly patients. The following applies: cited from earlier work; for clinical efficacy: human, in vivo.
For assay [8], the system named is scopolamine-induced memory loss. The following applies: monkeys; cited from earlier work.
Setting [9] is: scopolamine + Example 1 3.0 mg/kg I.P., N=11.
[10] abbreviates: scopolamine + Example 1 10.0 mg/kg I.P., N=12.
[11] abbreviates: scopolamine alone 0.3 mg/kg S.C., N=12.

Read-outs that look alike come from different tables or passages of the source.

With `Cc1cc(NCCCN2CCOCC2)nc2ccccc12` [Example 1, 4-Methyl-N-[3-(4-morpholinyl)propyl]-2-quinolinamine (E)-2-butenedioate 1:1 hydrate], the figures for the “effect on scopolamine impairment” value in assay [1] (3.0 mg/kg I.P.) and in [1] (10 mg/kg I.P.) were “non-significantly reduced this scoplamine impairment” and “had no effect”, respectively. The “effect on increased time measures caused by scopolamine” value in assay [1] (3, 10 mg/kg I.P.) is given as “largely unaffected”. In assay [1] (rat, in vivo), the “cognitive impairments seen after scopolamine treatment (conclusion)” value is “can reduce the cognitive impairments seen after scopolamine treatment”. Besides, the “Mean Error, Current” value in assay [1] (setting [9]) came to 0.55; in assay [1] (setting [10]), 0.33. Also, the “Mean Error, Delay” value worked out at 1.77 in assay [1] (setting [9]) and 2.75 in [1] (setting [10]). Further, the “Mean Error, Total” value in assay [1] (setting [9]) amounted to 1.14; in assay [1] (setting [10]), 1.54. Also, the “Mean Time 1.4” value amounted to 90.10 s in assay [1] (setting [9]) and 113.8 s in [1] (setting [10]). Besides, the “Mean Time 5-” value is 121.73 s in assay [1] (setting [9]) and 148.1 s in assay [1] (setting [10]). The “Mean Time Total” value in [1] (setting [9]) was 105.91 s; in assay [1] (setting [10]), 130.92 s. Moreover, the values for the half-inhibitory concentration (IC50) at M1 muscarinic receptor and on M2 receptors [3] were 1.2 µM and 69.3 µM, respectively. Besides, in the assay with M2 receptors [2], the M2/M1 is reported as 58. The “attenuation of scopolamine hyperactivity” value in [4] (30 and 54 mg/kg i.p., 30 and 45 minutes post-injection) was “produced an attenuation at 30 and 45 minutes post-injection that did not differ from the scopolamine-or vehicle-only controls”. In assay [4] (Rattus norvegicus, ip, attenuation of scopolamine (1.7 mg/kg) hyperactivity, i.p., read-out: minimum effective dose), the minimal effective dose is 30 mg/kg. For the same molecule, the “in vivo M1 agonist activity, less effective than oxotremorine” value in assay [4] (relative to oxotremorine) turned out to be 100 fold. Besides, the Total activity in assay [4] (scopolamine + Example 1 30 mg/kg i.p., 15 min, N=10) was 3792; in assay [4] (scopolamine + Example 1 30 mg/kg i.p., 30 min, N=10), 2069; in [4] (scopolamine + Example 1 30 mg/kg i.p., 45 min, N=10), 1839; in [4] (scopolamine + Example 1 30 mg/kg i.p., 60 min, N=10) it was 1697; in assay [4] (scopolamine + Example 1 54 mg/kg i.p., 15 min, N=10) it was 3602; in assay [4] (scopolamine + Example 1 54 mg/kg i.p., 30 min, N=10) it was 1899. Moreover, the Total activity was 1722 in assay [4] (scopolamine + Example 1 54 mg/kg i.p., 45 min, N=10) and 1535 in [4] (scopolamine + Example 1 54 mg/kg i.p., 60 min, N=10).

In the case of `CN1[C@@H]2C[C@@H](OC(=O)[C@H](CO)c3ccccc3)C[C@H]1[C@@H]1O[C@@H]12` [Scopolamine], the “effect on delay and total errors” value in [1] (scopolamine 0.3 mg/kg S.C., compared to vehicle) was “produced a significant impairment in both delay and total errors”. In addition, in assay [1] (setting [11]), the “Mean Error, Current” value is on record as 1.0. Moreover, the “Mean Error, Delay” value in assay [1] (setting [11]) was found to be 2.80. Moreover, the “Mean Error, Total” value in assay [1] (setting [11]) stood at 1.90. For the same molecule, the “Mean Time 1.4” value in assay [1] (setting [11]) was determined as 87.25 s. The “Mean Time 5-” value in assay [1] (setting [11]) came out at 169.80 s. The “Mean Time Total” value in assay [1] (setting [11]) was 128.50 s. Also, the “memory loss in normal humans” value in assay [5] (muscarinic antagonist) is on record as “can be artificially induced”. In addition, the “memory loss in animals” value in the assay with memory loss is listed as “can be artificially induced”. In addition, the “effect on total activity” value in [4] (scopolamine 1.7 mg/kg, 15, 30, 45 and 60 minutes post-injection) was “significantly elevated total activity at all four time points”. In addition, the Total activity turned out to be 4349 in assay [4] (scopolamine alone 1.7 mg/kg i.p., first experiment (Example 1), 15 min, N=9); 2816 in [4] (scopolamine alone 1.7 mg/kg i.p., first experiment (Example 1), 30 min, N=9); 2638 in assay [4] (scopolamine alone 1.7 mg/kg i.p., first experiment (Example 1), 45 min, N=9); 1858 in assay [4] (scopolamine alone 1.7 mg/kg i.p., first experiment (Example 1), 60 min, N=9); 5486 in assay [4] (scopolamine alone 1.7 mg/kg i.p., second experiment (oxotremorine), 15 min, N=9); 4720 in assay [4] (scopolamine alone 1.7 mg/kg i.p., second experiment (oxotremorine), 30 min, N=9). Also, the Total activity was determined as 3718 in [4] (scopolamine alone 1.7 mg/kg i.p., second experiment (oxotremorine), 45 min, N=9) and 3510 in assay [4] (scopolamine alone 1.7 mg/kg i.p., second experiment (oxotremorine), 60 min, N=9).

Turning to `COC(=O)C1=CCCN(C)C1` [arecoline], in assay [6], the “reversal of scopolamine-induced deficit” value was “can be reversed”. In addition, in [7], the clinical efficacy entry was “neither physostigmine nor arecoline have clinical efficacy due to undesirable side-effects, a short duration of action and a narrow active dose range”.

Take `CNC(=O)Oc1ccc2c(c1)[C@]1(C)CCN(C)[C@@H]1N2C` [physostigmine]: the “reversal of scopolamine-induced deficit” value in assay [8] and in assay [5] (humans) was “can be reversed” throughout. Moreover, the clinical efficacy entry in [7] is “neither physostigmine nor arecoline have clinical efficacy due to undesirable side-effects, a short duration of action and a narrow active dose range”.

With lecithin, the “improvement on cognitive tests” value in assay [7] (Alzheimer's patients and healthy elderly patients) was “No significant improvement was observed on any cognitive test”.
